Assay results as given in US8124610B2, “Sodium channel inhibitors” (Icagen Inc., priority 2007, dated 2012).

Biological target: T1, hSCN9A (Homo sapiens, UniProt Q15858)
T1 construct: expressed in transfected cells
Test: Whole-cell patch-clamp electrophysiology (conventional or PatchXpress), HEK cells expressing hSCN9A, estimated IC-50
Type: cell-based
Settings: estimated IC-50, HEK cells expressing hSCN9A; class symbols or bounds; read-out: SCN9A EIC-50
Description: Human Embryonic Kidney (HEK) cells were transfected with hSCN3A or hSCN9A constructs using lipofectamine reagent (Invitrogen), using standard techniques. Cells stably expressing the hSCN3A or hSCN9A constructs were identified by their resistance to G-418 (400 μg/ml). Clones were screened for expression using the whole-cell voltage-clamp technique. HEK cells stably transfected with hSCN3A or hSCN9A were maintained in DMEM medium supplemented with 10% heat-inactivated fetal bovine serum and 400 μg/ml G418 sulfate in an incubator at 37° C. with a humidified atmosphere of 10% CO2. For HTS, cells were harvested from flasks by trypsinization and replated in an appropriate multi-well plate (typically 96 or 384 wells/plate) such that confluence would be achieved within 24 hours of plating. For electrophysiological studies, cells were removed from the culture flask by brief trypsinization and replated at low density onto glass cover slips. Cells were typically used for electrophysiological experiments within 24 to 72 h after plating. Cover slips containing HEK cells expressing hSCN3A or hSCN9A were placed in a bath on the stage of an inverted microscope and perfused (approximately 1 ml/min) with extracellular solution of the following composition: 138 mM NaCl, 2 mM CaCl2, 5.4 mM KCl, 1 mM MgCl2, 10 mM glucose, and 10 mM HEPES, pH 7.4, with NaOH. […] All recordings were made at room temperature (22-24° C.) using AXOPATCH 200B amplifiers and PCLAMP software (Axon Instruments, Burlingame, Calif.) or PatchXpress 7000 hardware and associated software (Axon Instruments, Burlingame, Calif.). hSCN3A or hSCN9A currents in HEK cells were measured using the whole-cell configuration of the patch-clamp technique (Hamill et al., 1981). […] As a result, voltage errors were negligible and no correction was applied. Current records were acquired at 20 to 50 KHz and filtered at 5 to 10 KHz. HEK cells stably transfected with hSCN3A or hSCN9A were viewed under Hoffman contrast optics and placed in front of an array of flow pipes emitting either control or compound-containing extracellular solutions. All compounds were dissolved in dimethyl sulfoxide to make 10 mM stock solutions, which were then diluted into extracellular solution to attain the final concentrations desired. […] The voltage-dependence of inactivation was determined by applying a series of depolarizing prepulses (8 sec long in 10 mV increments) from a negative holding potential. The voltage was then immediately stepped to 0 mV to assess the magnitude of the sodium current. Currents elicited at 0 mV were plotted as a function of prepulse potential to allow estimation of the voltage midpoint of inactivation (V1/2). Cells were then voltage clamped at the empirically determined V1/2. Compounds were tested for their ability to inhibit hSCN3A or hSCN9A sodium channels by activating the channel with a 20 msec voltage step to 0 mV following an 8 second conditioning prepulse to the empirically determined V1-2 (Table B). Compound effect (% inhibition) was determined by difference in current amplitude before and after application of test compounds. […] In some cases electrophysiological assays were conducted with PatchXpress 7000 hardware and associated software (Molecular Devices Corp) (Table B). All assay buffers and solutions were identical to those used in conventional whole-cell voltage clamp experiments described above. hSCN3A or hSCN9A containing cells were grown as above to 50%-80% confluency and harvested by trypsinization. Trypsinized cells were washed and resuspended in extracellular buffer at a concentration of 1×10^6 cells/ml. The onboard liquid handling facility of the PatchXpress was used for dispensing cells and application of test compounds. Determination of the voltage midpoint of inactivation was as described for conventional whole-cell recordings. Cells were then voltage-clamped to the empirically determined V1/2 and current was activated by a 20 msec voltage step to 0 mV.

T1 sequence (Q15858 whole entry): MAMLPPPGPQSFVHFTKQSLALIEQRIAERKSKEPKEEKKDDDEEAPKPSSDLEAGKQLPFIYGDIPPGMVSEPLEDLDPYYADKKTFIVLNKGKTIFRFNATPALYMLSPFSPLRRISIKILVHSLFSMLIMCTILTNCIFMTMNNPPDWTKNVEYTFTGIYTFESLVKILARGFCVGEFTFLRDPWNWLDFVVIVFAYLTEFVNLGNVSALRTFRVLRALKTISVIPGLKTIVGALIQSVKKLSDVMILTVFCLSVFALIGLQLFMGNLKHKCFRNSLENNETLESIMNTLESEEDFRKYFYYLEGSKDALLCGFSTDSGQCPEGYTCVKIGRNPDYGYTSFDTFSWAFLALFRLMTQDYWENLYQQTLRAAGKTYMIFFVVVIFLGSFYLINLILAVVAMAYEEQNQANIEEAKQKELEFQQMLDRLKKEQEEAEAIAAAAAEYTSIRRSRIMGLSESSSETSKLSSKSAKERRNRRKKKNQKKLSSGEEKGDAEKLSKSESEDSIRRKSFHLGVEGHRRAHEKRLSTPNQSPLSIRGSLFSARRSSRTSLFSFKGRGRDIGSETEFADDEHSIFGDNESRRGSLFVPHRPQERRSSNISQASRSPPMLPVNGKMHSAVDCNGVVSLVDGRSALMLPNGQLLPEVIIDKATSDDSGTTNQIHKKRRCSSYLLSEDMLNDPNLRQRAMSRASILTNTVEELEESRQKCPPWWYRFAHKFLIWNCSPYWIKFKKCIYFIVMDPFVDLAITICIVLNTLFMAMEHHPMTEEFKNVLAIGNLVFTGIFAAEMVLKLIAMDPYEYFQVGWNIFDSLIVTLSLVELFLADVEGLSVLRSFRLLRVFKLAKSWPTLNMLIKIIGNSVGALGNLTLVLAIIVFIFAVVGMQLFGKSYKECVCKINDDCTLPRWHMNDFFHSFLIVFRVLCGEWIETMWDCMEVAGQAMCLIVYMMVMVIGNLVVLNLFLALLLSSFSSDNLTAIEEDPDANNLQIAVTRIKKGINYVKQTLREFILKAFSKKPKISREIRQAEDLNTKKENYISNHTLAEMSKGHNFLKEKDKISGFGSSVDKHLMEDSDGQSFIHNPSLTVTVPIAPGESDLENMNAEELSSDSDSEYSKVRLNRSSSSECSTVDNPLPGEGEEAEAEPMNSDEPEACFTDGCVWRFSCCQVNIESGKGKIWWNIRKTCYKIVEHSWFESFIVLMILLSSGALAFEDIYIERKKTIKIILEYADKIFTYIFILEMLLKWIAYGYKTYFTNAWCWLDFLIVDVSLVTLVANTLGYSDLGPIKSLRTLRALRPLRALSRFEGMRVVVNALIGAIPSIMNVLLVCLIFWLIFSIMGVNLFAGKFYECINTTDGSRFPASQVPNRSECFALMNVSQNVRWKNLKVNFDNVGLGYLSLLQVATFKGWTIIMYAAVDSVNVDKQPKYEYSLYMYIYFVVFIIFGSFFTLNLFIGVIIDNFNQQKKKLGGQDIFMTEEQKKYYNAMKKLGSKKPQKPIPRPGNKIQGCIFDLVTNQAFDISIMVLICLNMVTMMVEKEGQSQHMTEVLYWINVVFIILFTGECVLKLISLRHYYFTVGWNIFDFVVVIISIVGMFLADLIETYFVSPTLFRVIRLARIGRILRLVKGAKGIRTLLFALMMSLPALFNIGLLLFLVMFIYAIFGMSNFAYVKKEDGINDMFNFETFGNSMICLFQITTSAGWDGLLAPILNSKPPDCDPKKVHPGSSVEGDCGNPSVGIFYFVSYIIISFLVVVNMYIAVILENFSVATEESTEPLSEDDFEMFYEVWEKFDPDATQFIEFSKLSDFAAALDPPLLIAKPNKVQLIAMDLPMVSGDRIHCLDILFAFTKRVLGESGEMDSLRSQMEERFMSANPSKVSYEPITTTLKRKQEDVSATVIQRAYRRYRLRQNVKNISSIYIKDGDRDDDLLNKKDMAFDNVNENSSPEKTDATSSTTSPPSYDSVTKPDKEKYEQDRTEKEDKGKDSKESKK

SMILES	IC50 [nM]
Cc1nn(C(C)(C)C)c(Nc2ccc(S(=O)(=O)Nc3nccs3)cc2)c1-c1ccccc1 [Compound 123, 4-(1-tert-butyl-3-methyl-4-phenyl-1H-pyrazol-5-ylamino)-N-(thiazol-2-yl)benzenesulfonamide]	> 1000
N#Cc1cn(-c2ccccc2)nc1Nc1ccc(S(=O)(=O)Nc2nccs2)c(F)c1 [Compound 180, 4-(4-cyano-1-phenyl-1H-pyrazol-3-ylamino)-2-fluoro-N-(thiazol-2-yl)benzenesulfonamide]	2000 to 10000
CC(C)(C)c1csc(Nc2ccc(S(=O)(=O)Nc3nccs3)nc2)n1 [Compound 116, 5-(4-tert-butylthiazol-2-ylamino)-N-(thiazol-2-yl)pyridine-2-sulfonamide]	> 1000
Cc1cc(Nc2ccc(S(=O)(=O)Nc3nccs3)c(OC(F)(F)F)c2)n(-c2ccccc2)n1 [Compound 270, 4-(3-methyl-1-phenyl-1H-pyrazol-5-ylamino)-N-(thiazol-2-yl)-2-(trifluoromethoxy)benzenesulfonamide]	> 1000
O=S(=O)(Nc1ccncn1)c1ccc(Nc2ccn(Cc3ccc(Cl)cc3)n2)cc1F [Compound 262, 4-(1-(4-chlorobenzyl)-1H-pyrazol-3-ylamino)-2-fluoro-N-(pyrimidin-4-yl)benzenesulfonamide]	2000 to 10000
Cc1nn(C)c(Nc2ccc(S(=O)(=O)Nc3nccs3)cc2)c1-c1ccccc1 [Compound 122, 4-(1,3-dimethyl-4-phenyl-1H-pyrazol-5-ylamino)-N-(thiazol-2-yl)benzenesulfonamide]	> 1000
O=S(=O)(Nc1nccs1)c1ccc(Nc2nnc(Cc3ccc(Cl)cc3)s2)cc1 [Compound 120, 4-(5-(4-chlorobenzyl)-1,3,4-thiadiazol-2-ylamino)-N-(thiazol-2-yl)benzenesulfonamide]	2000 to 10000
Cc1cc(Nc2ccc(S(=O)(=O)Nc3nnc(C(C)C)s3)c(F)c2)n(-c2ccccc2)n1 [Compound 252, 2-fluoro-N-(5-isopropyl-1,3,4-thiadiazol-2-yl)-4-(3-methyl-1-phenyl-1H-pyrazol-5-ylamino)benzenesulfonamide]	> 1000
Cc1cc(Nc2ccc(S(=O)(=O)Nc3nccs3)c(F)c2)n(C(C)(C)C)n1 [Compound 192, 4-(1-tert-butyl-3-methyl-1H-pyrazol-5-ylamino)-2-fluoro-N-(thiazol-2-yl)benzenesulfonamide]	2000 to 10000
Cc1n[nH]c(Nc2ccc(S(=O)(=O)Nc3nccs3)cc2)c1-c1ccccc1 [Compound 124, 4-(3-methyl-4-phenyl-1H-pyrazol-5-ylamino)-N-(thiazol-2-yl)benzenesulfonamide]	> 1000
Cc1cc(Nc2ccc(S(=O)(=O)Nc3nnc(C(F)F)s3)c(F)c2)n(-c2ccccc2)n1 [Compound 248, N-(5-(difluoromethyl)-1,3,4-thiadiazol-2-yl)-2-fluoro-4-(3-methyl-1-phenyl-1H-pyrazol-5-ylamino)benzenesulfonamide]	2000 to 10000
N#Cc1cc(S(=O)(=O)Nc2ncns2)ccc1Nc1nnc(-c2ccccc2)c(O)n1 [Compound 273, 3-cyano-4-(5-hydroxy-6-phenyl-1,2,4-triazin-3-ylamino)-N-(1,2,4-thiadiazol-5-yl)benzenesulfonamide]	> 1000
CN(C)C(=O)Cc1cc(Nc2ccc(S(=O)(=O)Nc3nccs3)c(F)c2)n(-c2ccccc2)n1 [Compound 213, 2-(5-(3-fluoro-4-(N-thiazol-2-ylsulfamoyl)phenylamino)-1-phenyl-1H-pyrazol-3-yl)-N,N-dimethylethanamide]	2000 to 10000
O=S(=O)(Nc1nncs1)c1ccc(Nc2ccn(Cc3ccc(Cl)cc3)n2)cc1F [Compound 232, 4-(1-(4-chlorobenzyl)-1H-pyrazol-3-ylamino)-2-fluoro-N-(1,3,4-thiadiazol-2-yl)benzenesulfonamide]	< 2000

Other lines, results leading:

IC50 [nM]	SMILES
< 2000	O=S(=O)(Nc1nccs1)c1ccc(Nc2ccn(Cc3ccc(F)cc3)n2)cc1F [Compound 217, 2-fluoro-4-(1-(4-fluorobenzyl)-1H-pyrazol-3-ylamino)-N-(thiazol-2-yl)benzenesulfonamide]
< 2000	Cc1cc(Nc2ccc(S(=O)(=O)Nc3nccs3)c(F)c2)n(C2CCCC2)n1 [Compound 169, 4-(1-cyclopentyl-3-methyl-1H-pyrazol-5-ylamino)-2-fluoro-N-(thiazol-2-yl)benzenesulfonamide]
< 2000	Cc1ccc(Cc2cc(Nc3ccc(S(=O)(=O)Nc4nccs4)cc3F)n(C)n2)cc1 [Compound 160, 3-fluoro-4-(1-methyl-3-(4-methylbenzyl)-1H-pyrazol-5-ylamino)-N-(thiazol-2-yl)benzenesulfonamide]
< 2000	CC(C)(C)n1nc(Cc2cccc(Cl)c2)cc1Nc1ccc(S(=O)(=O)Nc2nccs2)c(F)c1 [Compound 164, 4-(1-tert-butyl-3-(3-chlorobenzyl)-1H-pyrazol-5-ylamino)-2-fluoro-N-(thiazol-2-yl)benzenesulfonamide]
< 2000	Cn1nc(Cc2ccc(C(F)(F)F)cc2)cc1Nc1ccc(S(=O)(=O)Nc2nccs2)cc1 [Compound 138, 4-(1-methyl-3-(4-(trifluoromethyl)benzyl)-1H-pyrazol-5-ylamino)-N-(thiazol-2-yl)benzenesulfonamide]
< 2000	Cc1cc(Nc2ccc(S(=O)(=O)Nc3nccs3)c(F)c2)n(-c2ccc(C(F)(F)F)cc2)n1 [Compound 170, 2-fluoro-4-(3-methyl-1-(4-(trifluoromethyl)phenyl)-1H-pyrazol-5-ylamino)-N-(thiazol-2-yl)benzenesulfonamide]
< 2000	Cn1nc(C2(c3ccc(Cl)cc3)CC2)cc1Nc1ccc(S(=O)(=O)Nc2nccs2)cc1F [Compound 142, 4-(3-(1-(4-chlorophenyl)cyclopropyl)-1-methyl-1H-pyrazol-5-ylamino)-3-fluoro-N-(thiazol-2-yl)benzenesulfonamide]
< 2000	Cc1cccc(-n2nc(C)cc2Nc2ccc(S(=O)(=O)Nc3nccs3)c(F)c2)c1 [Compound 176, 2-fluoro-4-(3-methyl-1-m-tolyl-1H-pyrazol-5-ylamino)-N-(thiazol-2-yl)benzenesulfonamide]
< 2000	O=S(=O)(Nc1nccs1)c1ccc2c(cnn2CCCCc2ccccc2)c1 [Compound 278, 1-(4-phenylbutyl)-N-(thiazol-2-yl)-1H-indazole-5-sulfonamide]
< 2000	Cc1ccc(Cc2cc(Nc3ccc(S(=O)(=O)Nc4nccs4)c(F)c3)n(C(C)(C)C)n2)cc1 [Compound 157, 4-(1-tert-butyl-3-(4-methylbenzyl)-1H-pyrazol-5-ylamino)-2-fluoro-N-(thiazol-2-yl)benzenesulfonamide]
< 2000	O=S(=O)(Nc1nccs1)c1ccc(Nc2ncn(Cc3cccc(C(F)(F)F)c3)n2)c(F)c1 [Compound 200, 3-fluoro-N-(thiazol-2-yl)-4-(1-(3-(trifluoromethyl)benzyl)-1H-1,2,4-triazol-3-ylamino)benzenesulfonamide]
< 2000	CC(C)(C)c1ccc(OCc2csc(Nc3ccc(S(=O)(=O)Nc4nccs4)c(F)c3)n2)cc1 [Compound 102, 4-(4-((4-tert-butylphenoxy)methyl)thiazol-2-ylamino)-2-fluoro-N-(thiazol-2-yl)benzenesulfonamide]
< 2000	COc1ccc(OC(F)(F)F)cc1Cn1cc(Nc2ccc(S(=O)(=O)Nc3nccs3)c(F)c2)cn1 [Compound 230, 2-fluoro-4-(1-(2-methoxy-5-(trifluoromethoxy)benzyl)-1H-pyrazol-4-ylamino)-N-(thiazol-2-yl)benzenesulfonamide]
< 2000	O=S(=O)(Nc1nccs1)c1ccc(Nc2ncn(Cc3ccccc3Cl)n2)c(F)c1 [Compound 208, 4-(1-(2-chlorobenzyl)-1H-1,2,4-triazol-3-ylamino)-3-fluoro-N-(thiazol-2-yl)benzenesulfonamide]
